These results are taken from US7919493B2, “Anititumoral ecteinascidin derivatives” (Pharma Mar, S.A., priority 2001, dated 2011).

In brackets after ≈: the same amount, converted by molar mass.

Common to all, as to assay type: cell-based
For experiment [1], the system named is P-388 (suspension culture of a lymphoid neoplasm from DBA/2 mouse). Description: Cytotoxic activity screening, P-388 cells. To be noted: three days of incubation, approximate IC50 vs control growth; for IC50: Mus musculus, P388, 72 h. How it is done:
(§1) Cell Cultures. Cells were maintained in logarithmic phase of growth in Eagle's Minimum Essential Medium, with Earle's Balanced Salts, with 2.0 mM L-glutamine, with non-essential amino acids, without sodium bicarbonate (EMEM/neaa); supplemented with 10% Fetal Calf Serum (FCS), 10^−2 M sodium bicarbonate and 0.1 g/l penicillin-G+streptomycin sulfate.
(§2) A simple screening procedure has been carried out to determine and compare the antitumour activity of these compounds, using an adapted form of the method described by Bergeron et al (1984). The tumour cell line employed have been P-388 (suspension culture of a lymphoid neoplasm from DBA/2 mouse), A-549 (monolayer culture of a human lung carcinoma), HT-29 (monolayer culture of a human colon carcinoma) and MEL-28 (monolayer culture of a human melanoma).
P-388 cell were seeded into 16 mm wells at 1×10^4 cells per well in 1 ml aliquots of MEM 5FCS containing the indicated concentration of drug. A separate set of cultures without drug was seeded as control growth to ensure that cells remained in exponential phase of growth. All determinations were carried out in duplicate.

For experiment [2], the system named is A-549 (monolayer culture of a human lung carcinoma). Description: Cytotoxic activity screening, A-549 cells. The following applies: three days of incubation, Crystal Violet, approximate IC50; for IC50: Homo sapiens, A549, 72 h. How it is done: as §1
(§3) A separate set of cultures without drug was seeded as control growth to ensure that cells remained in exponential phase of growth. All determinations were carried out in duplicate. After three days of incubation at 37° C., 10% CO2 in a 98% humid atmosphere, the wells were stained with 0.1% Crystal Violet. An approximately IC50 was determined by comparing the growth in wells with drug to the growth in wells control.

Experiment [3] concerns HT-29 (monolayer culture of a human colon carcinoma). Description: Cytotoxic activity screening, HT-29 cells. To be noted: three days of incubation, Crystal Violet, approximate IC50; for IC50: Homo sapiens, HT-29, 72 h. How it is done: as §1, §3
For experiment [4], the system named is MEL-28 (monolayer culture of a human melanoma). Description: Cytotoxic activity screening, MEL-28 cells. The following applies: three days of incubation, Crystal Violet, approximate IC50; for IC50: Homo sapiens, SK-MEL-28, 72 h. As for the experimental part:
as §1, §2
A-549, HT-29 and MEL-28 were seeded into 16 mm wells at 2×10^4 cells per well in 1 ml aliquots of MEM 10FCS containing the indicated concentration of drug. A separate set of cultures without drug was seeded as control growth to ensure that cells remained in exponential phase of growth. All determinations were carried out in duplicate. After three days of incubation at 37° C., 10% CO2 in a 98% humid atmosphere, the wells were stained with 0.1% Crystal Violet. An approximately IC50 was determined by comparing the growth in wells with drug to the growth in wells control.

A further experiment concerns DU-145. Description: Cytotoxic activity screening, DU-145 cells. The following applies: for IC50: Homo sapiens, DU-145, DU-145 cells. As for the experimental part:
[The source words this procedure for another cell line and reports this cell line under the same test.] as §1, §2
Examples of biological activities of the compounds described in the present application are in Table IV (IC50 (ng/mL)) on the following pages.

For the compound `COc1c(C)cc2c(c1O)[C@@H]1C3[C@@H]4SC[C@H](NC(=O)CCCCC5SCC6NC(=O)NC65)C(=O)OC[C@@H](c5c6c(c(C)c(OC(C)=O)c54)OCO6)N3[C@@H](O)[C@H](C2)N1C` (stereo partly drawn) [Compound 4k], the IC50 (in experiment [1]; in experiment [2]; in experiment [3]; in experiment [4]; with DU-145) was 10 ng/mL (≈ 11.9 nM) each time.
`COc1c(C)cc2c(c1O)[C@@H]1C3[C@@H]4SC[C@H](NC(=O)CCC(=O)O)C(=O)OC[C@@H](c5c6c(c(C)c(OC(C)=O)c54)OCO6)N3[C@@H](O)[C@H](C2)N1C` (stereo partly drawn) [Compound 4l]: the IC50 (in experiment [1]; in experiment [2]; in experiment [3]; in experiment [4]; in the experiment with DU-145) was 100 ng/mL (≈ 140 nM) throughout.
For the compound `COc1c(C)cc2c(c1O)[C@@H]1C3[C@@H]4SCC(NCc5ccccc5)C(=O)OC[C@@H](c5c6c(c(C)c(OC(C)=O)c54)OCO6)N3[C@@H](O)[C@H](C2)N1C` (stereo partly drawn) [Compound 4n], the IC50 (in experiment [1]; in experiment [2]; in experiment [3]; in experiment [4]; in the experiment with DU-145) was 0.5 ng/mL (≈ 0.71 nM) in each case.
Take `COc1c(C)cc2c(c1O)[C@@H]1C3[C@@H]4SCC(NC(=O)C(N)C(C)C)C(=O)OC[C@@H](c5c6c(c(C)c(OC(C)=O)c54)OCO6)N3[C@@H](O)[C@H](C2)N1C` (stereo partly drawn) [Compound 4p]: the IC50 (in experiment [1]; in experiment [2]; in experiment [3]; in experiment [4]; in the experiment with DU-145) was 0.5 ng/mL (≈ 0.701 nM) each time.
In the case of `COc1c(C)cc2c(c1O)[C@@H]1C3[C@@H]4SC[C@H](NC(=O)C(NC(C)=O)C(C)C)C(=O)OC[C@@H](c5c6c(c(C)c(OC(C)=O)c54)OCO6)N3[C@@H](O)[C@H](C2)N1C` (stereo partly drawn) [Compound 4q], the IC50 (in experiment [1]; in experiment [2]; in experiment [3]; in experiment [4]; in the experiment with DU-145) was 1 ng/mL (≈ 1.32 nM) each time.
Consider `COc1c(C)cc2c(c1O)[C@@H]1C3[C@@H]4SC[C@H](NC(=O)C(NC(=O)/C=C/c5ccccc5)C(C)C)C(=O)OC[C@@H](c5c6c(c(C)c(OC(C)=O)c54)OCO6)N3[C@@H](O)[C@H](C2)N1C` (stereo partly drawn) [Compound 4r], for which the IC50 (in experiment [1]; in experiment [2]; in experiment [3]; in experiment [4]; in the experiment with DU-145) was 0.5 ng/mL (≈ 0.593 nM) in each case.
Take `COc1c(C)cc2c(c1O)[C@@H]1C3[C@@H]4SC[C@H](NC(=O)C(NC(=O)C(C)N)C(C)C)C(=O)OC[C@@H](c5c6c(c(C)c(OC(C)=O)c54)OCO6)N3[C@@H](O)[C@H](C2)N1C` (stereo partly drawn) [Compound 4s]: the IC50 (in experiment [1]; in experiment [2]; in experiment [3]; in experiment [4]; in the experiment on DU-145) was 1 ng/mL (≈ 1.28 nM) each time.
In the case of `COc1c(C)cc2c(c1O)[C@@H]1C3[C@@H]4SC[C@H](NC(=O)C(NC(=O)C(C)NC(C)=O)C(C)C)C(=O)OC[C@@H](c5c6c(c(C)c(OC(C)=O)c54)OCO6)N3[C@@H](O)[C@H](C2)N1C` (stereo partly drawn) [Compound 4t], the IC50 (usually the concentration that gives 50% inhibition) in experiment [1] was 100 ng/mL (≈ 121 nM); in experiment [2] it was 100 ng/mL (≈ 121 nM); in experiment [3] it was 10 ng/mL (≈ 12.1 nM); in experiment [4], 10 ng/mL (≈ 12.1 nM); with DU-145, 10 ng/mL (≈ 12.1 nM).
For the compound `COc1c(C)cc2c(c1O)[C@@H]1C3[C@@H]4SC[C@H](NC(=O)C(NC(=O)C(C)NC(=O)/C=C/c5ccccc5)C(C)C)C(=O)OC[C@@H](c5c6c(c(C)c(OC(C)=O)c54)OCO6)N3[C@@H](O)[C@H](C2)N1C` (stereo partly drawn) [Compound 4u], the IC50 (in experiment [1]; in experiment [2]; in experiment [3]; in experiment [4]; in the experiment with DU-145) was 5 ng/mL (≈ 5.47 nM) in each case.
For the compound `COc1c(C)cc2c(c1O)[C@@H]1C3[C@@H]4SC[C@H](NC(=O)C(C)N)C(=O)OC[C@@H](c5c6c(c(C)c(OC(C)=O)c54)OCO6)N3[C@@H](O)[C@H](C2)N1C` (stereo partly drawn) [Compound 4v], the IC50 (in experiment [1]; in experiment [2]; in experiment [3]; in experiment [4]; with DU-145) was 1 ng/mL (≈ 1.46 nM) in each case.
For `COc1c(C)cc2c(c1O)[C@@H]1C3[C@@H]4SC[C@H](NC(=O)C(C)NC(=O)/C=C/c5ccccc5)C(=O)OC[C@@H](c5c6c(c(C)c(OC(C)=O)c54)OCO6)N3[C@@H](O)[C@H](C2)N1C` (stereo partly drawn) [Compound 4x], the IC50 (in experiment [1]; in experiment [2]; in experiment [3]; in experiment [4]; with DU-145) was 1 ng/mL (≈ 1.23 nM) throughout.
Turning to `COC(=O)c1ccccc1C(=O)N[C@H]1CS[C@@H]2c3c(OC(C)=O)c(C)c4c(c3[C@H](COC1=O)N1C2[C@H]2c3c(cc(C)c(OC)c3O)C[C@@H]([C@@H]1C#N)N2C)OCO4` (stereo partly drawn) [Compound 6], the IC50 (in experiment [1]; in experiment [2]; in experiment [3]; in experiment [4]; in the experiment on DU-145) was 1 ng/mL (≈ 1.27 nM) throughout.
Turning to `COc1c(C)cc2c(c1O)[C@@H]1C3[C@@H]4SC[C@H](O)C(=O)OC[C@@H](c5c6c(c(C)c(OC(C)=O)c54)OCO6)N3[C@@H](C#N)[C@H](C2)N1C` (stereo partly drawn) [Compound 15], the IC50 (in experiment [1]; in experiment [2]; in experiment [3]; in experiment [4]; in the experiment with DU-145) was 5 ng/mL (≈ 8.02 nM) in each case.
Consider `COc1c(C)cc2c(c1O)[C@@H]1C3[C@@H]4SC[C@@H](OC(C)=O)C(=O)OC[C@@H](c5c6c(c(C)c(OC(C)=O)c54)OCO6)N3[C@@H](C#N)[C@H](C2)N1C` (stereo partly drawn) [Compound 17a], for which the “IC50 P-388” value in experiment [1] was 0.1 ng/mL (≈ 0.15 nM). Also, in experiment [2], the “IC50 A-549” value is 0.1 ng/mL (≈ 0.15 nM). The “IC50 HT-29” value in experiment [3] is 0.1 ng/mL (≈ 0.15 nM). The “IC50 MEL-28” value in experiment [4] is listed as 0.1 ng/mL (≈ 0.15 nM). Also, the “IC50 DU-145” value in the experiment with DU-145 (DU-145 cells) came to 0.1 ng/mL (≈ 0.15 nM).
Regarding `COc1c(C)cc2c(c1O)[C@@H]1C3[C@@H]4SC[C@H](OC(=O)C(F)(F)F)C(=O)OC[C@@H](c5c6c(c(C)c(OC(C)=O)c54)OCO6)N3[C@@H](C#N)[C@H](C2)N1C` (stereo partly drawn) [Compound 17b], the IC50 (in experiment [1]; in experiment [2]; in experiment [3]; in experiment [4]; with DU-145) was 5 ng/mL (≈ 6.95 nM) throughout.
`CCCC(=O)O[C@H]1CS[C@@H]2c3c(OC(C)=O)c(C)c4c(c3[C@H](COC1=O)N1C2[C@H]2c3c(cc(C)c(OC)c3O)C[C@@H]([C@@H]1C#N)N2C)OCO4` (stereo partly drawn) [Compound 17c]: the IC50 (in experiment [1]; in experiment [2]; in experiment [3]; in experiment [4]; with DU-145) was 1 ng/mL (≈ 1.44 nM) in each case.
Turning to `CCCCCCCC(=O)O[C@H]1CS[C@@H]2c3c(OC(C)=O)c(C)c4c(c3[C@H](COC1=O)N1C2[C@H]2c3c(cc(C)c(OC)c3O)C[C@@H]([C@@H]1C#N)N2C)OCO4` (stereo partly drawn) [Compound 17e], the IC50 (in experiment [1]; in experiment [2]; in experiment [3]; in experiment [4]; in the experiment with DU-145) was 1 ng/mL (≈ 1.33 nM) throughout.
With `CCCCCCCCCCCCCCCC(=O)O[C@H]1CS[C@@H]2c3c(OC(C)=O)c(C)c4c(c3[C@H](COC1=O)N1C2[C@H]2c3c(cc(C)c(OC)c3O)C[C@@H]([C@@H]1C#N)N2C)OCO4` (stereo partly drawn) [Compound 17f], the IC50 (in experiment [1]; in experiment [2]; in experiment [3]; in experiment [4]; in the experiment on DU-145) was greater than 1000 ng/mL each time.
